From patent publication US20240270821A1, “GIP/GLP1/GCG TRI-RECEPTOR AGONISTS AND USES THEREOF” (priority 2023, published 2024)
Like-named read-outs stand apart in the source and are kept apart here. Starred links: 1 amine or outer side, 2 acyl side, 3 side chain; linkers in the order of their positions; H or OH if unused. Non-standard residues stand in square brackets, D forms with d. Residues, ends and D or L forms follow the SMILES beside them. Groups on a side chain read outwards from the residue. No end group written: not given here. *: point of attachment. C20 diacid = O=C(O)CCCCCCCCCCCCCCCCCCC(=O)*; C18 diacid = O=C(O)CCCCCCCCCCCCCCCCC(=O)*; αMePhe(2-F) = C[C@](N)(Cc1ccccc1F)C(=O)O; γGlu = O=C(O)[C@H](CCC(=O)[*:2])N[*:1]; αMe4Pal = C[C@](N)(Cc1ccncc1)C(=O)O; αMeY = C[C@](N)(Cc1ccc(O)cc1)C(=O)O; αMeF = C[C@](N)(Cc1ccccc1)C(=O)O; 4Pal = N[C@@H](Cc1ccncc1)C(=O)O; αMeL = CC(C)C[C@](C)(N)C(=O)O; αMeS = C[C@](N)(CO)C(=O)O; Orn = NCCC[C@H](N)C(=O)O; AEEA = NCCOCCOCC(=O)O; Aib = CC(C)(N)C(=O)O

What was measured:
Assay type in all cases: cell-based
hGIPR [1] = target: T1, hGIPR (Homo sapiens, UniProt P48546); assay: Functional cAMP activation in the presence of 0.1% casein (no HSA); details: read-out: Relative cAMP EC50, hGIPR;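 further: intracellular cAMP rise after 30 min at 37 °C read by HTRF against a standard curve, scaled between buffer alone (0%) and top control ligand concentration (100%), four-parameter fit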
T1 sequence (P48546 22-466): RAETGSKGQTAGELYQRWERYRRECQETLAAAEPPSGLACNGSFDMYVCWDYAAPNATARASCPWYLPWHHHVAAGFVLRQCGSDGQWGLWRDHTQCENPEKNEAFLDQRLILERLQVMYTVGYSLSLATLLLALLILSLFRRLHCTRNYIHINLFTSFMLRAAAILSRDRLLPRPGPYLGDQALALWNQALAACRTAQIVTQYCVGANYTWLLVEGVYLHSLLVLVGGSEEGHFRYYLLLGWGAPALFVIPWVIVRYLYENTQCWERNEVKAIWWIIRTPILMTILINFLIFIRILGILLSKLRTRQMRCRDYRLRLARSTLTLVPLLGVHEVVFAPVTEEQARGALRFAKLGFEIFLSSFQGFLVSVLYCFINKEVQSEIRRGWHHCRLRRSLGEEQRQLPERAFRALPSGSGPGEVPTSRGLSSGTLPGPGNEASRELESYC

hGLP-1R [2] = target: T2, hGLP-1R (Homo sapiens, UniProt P43220); assay: Functional cAMP activity in the presence of 1% HSA; details: read-out: cAMP Rel EC50, hGLP-1R
hGcgR = hGcgR (Homo sapiens, UniProt P47871); assay: Functional cAMP activation in the presence of 0.1% casein (no HSA); details: read-out: Relative cAMP EC50, hGcgR;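 further: intracellular cAMP rise after 30 min at 37 °C, read by HTRF against a cAMP standard curve, scaled from buffer only (0%) to maximal control ligand response (100%)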
human GcgR = human GcgR (Homo sapiens, UniProt P47871); assay: Functional cAMP activity in the presence of 1% HSA; details: read-out: cAMP Rel EC50, hGcgR
hGIPR [3] = target: T1, hGIPR; assay: Functional cAMP activity in the presence of 1% HSA; details: read-out: cAMP Rel EC50, hGIPR
hGLP-1R [4] = target: T2, hGLP-1R; assay: Functional cAMP activation in the presence of 0.1% casein (no HSA); details: read-out: Relative cAMP EC50, hGLP-1R;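 further: intracellular cAMP rise after 30 min at 37 °C read by HTRF, normalized between buffer only (0%) and maximal control ligand (100%), four-parameter variable-slope fit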
[5] = in the presence of 0.1% casein (no HSA), geometric mean
[6] = in the presence of 0.1% casein (no HSA), geometric mean of relative EC50
[7] = HEK-293 clonal cell line, 1% HSA, geometric mean of relative EC50

T2 sequence (P43220 24-463): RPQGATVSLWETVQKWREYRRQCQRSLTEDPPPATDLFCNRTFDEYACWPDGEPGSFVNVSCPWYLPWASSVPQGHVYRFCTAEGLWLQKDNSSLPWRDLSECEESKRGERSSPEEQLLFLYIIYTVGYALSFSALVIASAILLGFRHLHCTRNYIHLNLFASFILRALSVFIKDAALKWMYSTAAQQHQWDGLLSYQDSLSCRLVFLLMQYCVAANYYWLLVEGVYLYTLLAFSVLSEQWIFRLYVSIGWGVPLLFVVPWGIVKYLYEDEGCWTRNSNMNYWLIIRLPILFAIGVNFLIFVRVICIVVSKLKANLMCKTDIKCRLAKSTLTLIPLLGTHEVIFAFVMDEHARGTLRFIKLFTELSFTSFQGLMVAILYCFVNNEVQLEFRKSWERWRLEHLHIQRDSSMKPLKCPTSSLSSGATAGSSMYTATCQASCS
Chain of human GcgR (P47871 26-477): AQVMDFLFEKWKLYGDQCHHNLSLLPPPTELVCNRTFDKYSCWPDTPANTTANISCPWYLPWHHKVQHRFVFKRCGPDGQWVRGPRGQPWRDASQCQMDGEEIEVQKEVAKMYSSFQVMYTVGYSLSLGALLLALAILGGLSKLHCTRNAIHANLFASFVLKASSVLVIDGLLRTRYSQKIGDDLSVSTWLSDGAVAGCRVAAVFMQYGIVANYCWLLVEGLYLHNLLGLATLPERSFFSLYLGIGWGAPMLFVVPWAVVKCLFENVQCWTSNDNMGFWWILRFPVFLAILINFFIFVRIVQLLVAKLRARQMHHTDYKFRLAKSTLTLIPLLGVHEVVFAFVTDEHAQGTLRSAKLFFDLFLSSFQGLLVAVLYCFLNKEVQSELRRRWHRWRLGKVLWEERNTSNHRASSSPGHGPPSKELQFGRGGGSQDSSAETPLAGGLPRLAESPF
Chain of hGcgR (P47871 26-477): as above

Row | Compound | EC50 (hGIPR [1]; [5]) [nM] | EC50 (hGLP-1R [2]) [nM] | EC50 (hGcgR; [5]) [nM] | EC50 (human GcgR) [nM] | EC50 (hGIPR [3]) [nM] | EC50 (hGLP-1R [4]; [5]) [nM] | EC50 (hGIPR [1]; [6]) [nM] | EC50 (hGLP-1R [2]; [7]) [nM] | EC50 (hGcgR; [6]) [nM] | EC50 (human GcgR; [7]) [nM] | EC50 (hGIPR [3]; [7]) [nM] | EC50 (hGLP-1R [4]; [6]) [nM] | EC50 (hGIPR [1]) [nM] | EC50 (hGcgR) [nM] | EC50 (hGLP-1R [4]) [nM]
1 | H-Y[Aib]QGTFTSDYSI[αMeL]LDKQAAK([AEEA-AEEA-γGlu-C20 diacid])QFVEWLIAGGPSSGEPPPAEG-NH2 [Example 332] | 0.413 | 298 | 11.8 | 3340 | 78.2 | 1.24 | – | – | – | – | – | – | – | – | –
2 | H-Y[Aib]QGT[αMePhe(2-F)]TSD[4Pal]SI[αMeL]LDKK([γGlu-γGlu-C18 diacid])AQ[Aib][Orn]FIEYLEEGGPSSGEPPPSGSEE-NH2 [Example 635] | – | – | – | – | – | – | 0.0405 | 53.9 | 7.09 | 753 | 2.7 | 0.625 | – | – | –
3 | H-Y[Aib]QGTFTSD[4Pal]SQ[αMeL]LD[Orn]K([γGlu-γGlu-C18 diacid])AQ[αMe4Pal]AFIEYLIAGGPSSGEPPPSGSE [Example 977] | 0.189 | 159 | 7.18 | 839 | 23 | 1.1 | – | – | – | – | – | – | – | – | –
4 | Y[Aib]QGT[αMePhe(2-F)]TSD[4Pal][αMeS]I[αMeL]LD[Orn]K([γGlu-γGlu-C18 diacid])AQ[Aib][Orn]FI[dE][αMeY]LSEGGPSSGEPPPSGSEE-NH2 [Example 569] | – | 84.4 | – | 697 | 12.4 | – | – | – | – | – | – | – | 0.199 | 4.34 | 1.12
5 | H-Y[Aib]QGT[αMePhe(2-F)]TSD[4Pal][αMeS]I[αMeL]LD[Orn]K([γGlu-γGlu-C18 diacid])AQ[Aib][Orn]FI[dE]YLLEGGPSSGEPPPSGTE-NH2 [Example 532] | – | 47.3 | – | 157 | 1.49 | – | – | – | – | – | – | – | 0.0159 | 1.37 | 0.577
6 | H-Y[Aib]QGTFTSD[4Pal][αMeS]Q[αMeL]LD[Orn]K([dE-γGlu-C18 diacid])AQ[αMe4Pal]QFIQ[αMeY]LLE[Aib]GPSSGAPPPSGGGE-NH2 [Example 1138] | 0.0491 | 164 | 1.01 | 72.8 | 3.4 | 1.93 | – | – | – | – | – | – | – | – | –
7 | H-Y[Aib]QGT[αMePhe(2-F)]TSD[4Pal][αMeS]I[αMeL]LD[Orn]K([γGlu-γGlu-C18 diacid])AQ[αMe4Pal]EFI[dE][αMeY]LIEGGPSSGEPPPSGGGE-NH2 [Example 744] | – | 22.1 | – | 111 | 0.488 | – | – | – | – | – | – | – | 0.00844 | 1.04 | 0.274
8 | H-Y[Aib]QGTFTSD[4Pal]S[Orn][αMeL]LD[Orn]K([γGlu-γGlu-C18 diacid])AQ[αMe4Pal]AFIE[αMe4Pal]LIE[Aib]GPSSGEPPPSGS-NH2 [Example 991] | 0.119 | 315 | 3.03 | 405 | 14.8 | 3.91 | – | – | – | – | – | – | – | – | –
9 | H-Y[Aib]QGT[αMePhe(2-F)]TSD[4Pal][αMeS]I[αMeL]LD[Orn]K([AEEA-γGlu-C18 diacid])AQ[αMe4Pal]EFI[dE][αMeY]LVEGGPSSGAPPPGGE-NH2 [Example 1154] | 0.00879 | 44.5 | 6.42 | 320 | 0.954 | 0.344 | – | – | – | – | – | – | – | – | –
10 | H-Y[Aib]QGT[αMePhe(2-F)]TSD[4Pal][αMeS]I[αMeL]LD[Orn]K([AEEA-γGlu-C18 diacid])AQ[Aib]NFIEYLIEGGPSSGEPPPEGE-NH2 [Example 483] | – | 18.2 | – | 231 | 1.17 | – | – | – | – | – | – | – | 0.0133 | 1.77 | 0.188
11 | H-Y[Aib]QGTFTSD[4Pal]SQ[αMeL]LD[Orn]K([AEEA-γGlu-C18 diacid])AQ[αMe4Pal]AFIE[αMeY]LIEGGPSSGAPPPSGS-NH2 [Example 849] | 0.306 | 111 | 6.66 | 1160 | 36.6 | 0.661 | – | – | – | – | – | – | – | – | –
12 | H-Y[Aib]QGT[αMePhe(2-F)]TSD[4Pal][αMeS]I[αMeL]LD[Orn]K([AEEA-γGlu-C18 diacid])AQ[Aib][Orn]FI[dE][αMeY]LIEGGPSSGEPPPEGE-NH2 [Example 698] | – | 20.6 | – | 124 | 0.824 | – | – | – | – | – | – | – | 0.0112 | 1.53 | 0.252
13 | H-Y[Aib]QGTFTSD[4Pal]SQ[αMeL]LDKK([γGlu-γGlu-C18 diacid])AQ[αMe4Pal]AFIEYLIE[Aib]GPSSGAPPPEGE-NH2 [Example 884] | 0.155 | 298 | 3.82 | 613 | 23.5 | 4.17 | – | – | – | – | – | – | – | – | –
14 | CC[C@H](C)[C@H](NC(=O)[C@H](Cc1ccccc1)NC(=O)[C@H](CCCN)NC(=O)C(C)(C)NC(=O)[C@H](CCC(N)=O)NC(=O)[C@H](C)NC(=O)[C@H](CCCCNC(=O)COCCOCCNC(=O)CC[C@H](NC(=O)CCCCCCCCCCCCCCCCC(=O)O)C(=O)O)NC(=O)[C@H](CCCN)NC(=O)[C@H](CC(=O)O)NC(=O)[C@H](CC(C)C)NC(=O)[C@H](CC(C)C)NC(=O)[C@H](CO)NC(=O)[C@](C)(CO)NC(=O)[C@H](Cc1ccc(O)cc1)NC(=O)[C@H](CC(=O)O)NC(=O)[C@H](CO)NC(=O)[C@@H](NC(=O)[C@](C)(Cc1ccccc1)NC(=O)[C@@H](NC(=O)CNC(=O)[C@H](CCC(N)=O)NC(=O)C(C)(C)NC(=O)[C@@H](N)Cc1ccc(O)cc1)[C@@H](C)O)[C@@H](C)O)C(=O)N[C@H](CCC(=O)O)C(=O)N[C@@](C)(Cc1ccc(O)cc1)C(=O)N[C@@H](CC(C)C)C(=O)N[C@@H](CC(C)C)C(=O)N[C@@H](CCC(=O)O)C(=O)NCC(=O)NCC(=O)N1CCC[C@H]1C(=O)N[C@@H](CO)C(=O)N[C@@H](CO)C(=O)NCC(=O)N[C@@H](CCC(=O)O)C(=O)N1CCC[C@H]1C(=O)N1CCC[C@H]1C(=O)N1CCC[C@H]1C(=O)N[C@@H](CCC(=O)O)C(N)=O [Example 390] (H-Y[Aib]QGT[αMeF]TSDY[αMeS]SLLD[Orn]K([AEEA-γGlu-C18 diacid])AQ[Aib][Orn]FI[dE][αMeY]LLEGGPSSGEPPPE-NH2) | 0.122 | 19.6 | 3.08 | 549 | 37.8 | 0.134 | – | – | – | – | – | – | – | – | –
15 | H-Y[Aib]QGTFTSD[4Pal]SQ[αMeL]LDKK([AEEA-γGlu-C18 diacid])AQ[αMe4Pal]AFIEYLIE[Aib]GPSSGAPPPSGSEEE-NH2 [Example 898] | 0.287 | 584 | 3.39 | 770 | 25.5 | 4.62 | – | – | – | – | – | – | – | – | –
16 | H-Y[Aib]QGT[αMePhe(2-F)]TSD[4Pal][αMeS]I[αMeL]LD[Orn]K([AEEA-γGlu-C18 diacid])AQ[αMe4Pal]EFI[dE][αMeY]LIEGGPSSGEPPPTGE-NH2 [Example 1143] | 0.0087 | 49.6 | 1.42 | 182 | 0.751 | 0.381 | – | – | – | – | – | – | – | – | –
17 | CC[C@H](C)[C@H](NC(=O)[C@H](CC(C)C)NC(=O)[C@H](Cc1ccc(O)cc1)NC(=O)[C@H](CCC(=O)O)NC(=O)[C@@H](NC(=O)[C@H](Cc1ccccc1)NC(=O)[C@H](C)NC(=O)[C@](C)(Cc1ccncc1)NC(=O)[C@H](CCC(N)=O)NC(=O)[C@H](C)NC(=O)[C@H](CCCCNC(=O)COCCOCCNC(=O)CC[C@H](NC(=O)CCCCCCCCCCCCCCCCC(=O)O)C(=O)O)NC(=O)[C@H](CCCCN)NC(=O)[C@H](CC(=O)O)NC(=O)[C@H](CC(C)C)NC(=O)[C@](C)(CC(C)C)NC(=O)[C@H](CCCN)NC(=O)[C@H](CO)NC(=O)[C@H](Cc1ccncc1)NC(=O)[C@H](CC(=O)O)NC(=O)[C@H](CO)NC(=O)[C@@H](NC(=O)[C@H](Cc1ccccc1)NC(=O)[C@@H](NC(=O)CNC(=O)[C@H](CCC(N)=O)NC(=O)C(C)(C)NC(=O)[C@@H](N)Cc1ccc(O)cc1)[C@@H](C)O)[C@@H](C)O)[C@@H](C)CC)C(=O)N[C@@H](CCC(=O)O)C(=O)NCC(=O)NCC(=O)N[C@@H](CCC(=O)O)C(=O)N[C@@H](CO)C(=O)N[C@@H](CO)C(=O)NCC(=O)N[C@@H](C)C(=O)N1CCC[C@H]1C(=O)N1CCC[C@H]1C(=O)N1CCC[C@H]1C(=O)N[C@@H](CO)C(=O)NCC(=O)N[C@@H](CO)C(N)=O [Example 791] | 0.979 | 980 | 2.36 | 456 | 143 | – | – | – | – | – | – | – | – | – | –
